{"source": "paper PMC8286842", "about": "“The structures of E. coli NfsA bound to the antibiotic nitrofurantoin; to 1,4-benzoquinone and to FMN” (Biochemical Journal, 2021)", "molecular_target": "T1, NfsA (Escherichia coli, UniProt P17117)", "T1 construct": "untagged, dimer", "T1 sequence (P17117 1-240)": "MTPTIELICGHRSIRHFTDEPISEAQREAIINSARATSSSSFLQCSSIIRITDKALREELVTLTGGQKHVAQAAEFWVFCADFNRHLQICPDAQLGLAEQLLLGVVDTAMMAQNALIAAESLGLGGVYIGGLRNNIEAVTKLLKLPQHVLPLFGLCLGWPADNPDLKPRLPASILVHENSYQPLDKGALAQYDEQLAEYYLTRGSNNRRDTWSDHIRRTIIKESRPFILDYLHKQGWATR", "assay": "X-ray crystal structure at […] Å with a second FMN as ligand; steady-state inhibition kinetics", "format": "biochemical"}
{"smiles": "Cc1cc2nc3c(=O)[nH]c(=O)nc-3n(C[C@H](O)[C@H](O)[C@H](O)COP(=O)(O)O)c2cc1C", "note": "[FMN]", "values": [{"measurement": "Ki", "result": "~8", "unit": "µM"}]}
